According to patent publication US8258097B2, “Amino acid derivatives” (Proximagen Ltd., priority 2007, dated 2012):

System: 6-OHDA-lesioned rats
Test: Assessment of rotational (locomotor) activity in 6-OHDA-lesioned rats
Assay type: in vivo, Male Wistar rats
Settings: p.o., with benserazide 10 mg/kg, 63.4 μmole/kg
Method: • Animals Male Wistar rats, 200-225 g on arrival, Harlan Ltd. • Housing Animals were housed in groups of 4 on a 12-h light-dark cycle with an environment of 50% humidity and temperature of 21±2° C. in accordance with Animals (Scientific Procedures) Act […] Home Office regulations. Rats had access to food and water ad libitum. • Licence All animals used in this study were treated in accordance with the UK 1986 Animals (Scientific Procedures Act). Procedure • Surgery Male Wistar rats were anaesthetized in an induction chamber using isofluorane (1-2% in 95% O2, 5% CO2 carrier gas), placed in a Kopf stereotaxic frame and anaesthesia maintained with 0.5-1.0% isofluorane. An incision was made in the scalp and a 0.8-mm-diameter hole made in the skull at coordinates AP: −2.6 mm, L: +2.0 mm (all co-ordinated measured from bregma). The neurotoxin 6-hydroxydopamine (6-OHDA) (8 μg free base in 4 μL of 0.9% saline containing 0.05% ascorbic acid) was injected into the left median forebrain bundle at a constant rate over 4 min (1 μl/min) using a 10-μL Hamilton syringe lowered to −8 mm below the dura. The needle remained in place for a further 4 min before being removed, and the wound cleaned and sutured. Carprofen (5 mg/kg subcutaneously) was administered for pain relief and a rehydration treatment of 5% glucose in 0.9% saline (up to 5 ml ip) was given prior to recovery from the anaesthetic. Behavioural Assessment Confirmation of the Lesion • At least 2 weeks following surgery, animals were examined for rotational behaviour (see below) in response to the administration of apomorphine hydrochloride (0.5 mg/kg s.c. in 0.9% saline containing 0.05% ascorbic acid) to evaluate the extent of the lesion. […]. Animals were placed in rotometers (Med Associates) for up to 30 min to measure basal activity. They were then treated with benserazide (10 mg/kg) concomitantly with test compound or L-DOPA (63.4 μmole/kg ip or po). Rotation behaviour was assessed for up to 6 hours after test drug/L-DOPA administration. Animals were typically treated with a series of compounds for comparative purposes. Each treatment was administered at least 1 day apart. Data Analysis • The number of rotations measured per 10 minutes over the 6 hour period was determined. Animals were considered active if they turned >10 turns per 10 minutes.

CNC(=O)Oc1cc(C[C@H](NC(=O)[C@@H](N)Cc2ccc(O)c(O)c2)C(=O)OC)ccc1O.Cl [Example 8, (S)-2-(3,4-Dihydroxy-phenyl)-1-[(S)-2-(4-hydroxy-3-methylcarbamoyloxy-phenyl)-1-methoxycarbonyl-ethylcarbamoyl]-ethyl-ammonium chloride]
AUC (locomotor activity): 928 (±161) rotations per 220 min | locomotor activity compared to baseline: increased locomotor activity compared to baseline | peak locomotor activity: 92 (±20) rotations per 10 min | duration of locomotor activity (active = >10 turns per 10 minutes): 142 (±7) min
